One series is described as follows: solvent given as SMILES. Conditions: in CN(C)C=O.
In turn, `Cc1cc(C)c(B(c2ccc(N3c4ccccc4Oc4ccccc43)cc2)c2c(C)cc(C)cc2C)c(C)c1` displayed an emission maximum of 665.64 nm.

The series is the same for the next values; noted with them: in CO.
In turn, `COc1ccc(-c2cc(-c3ccc(C)cc3)nc3c(C#N)c(N4CCCC4)nc(N)c23)cc1` displayed an emission maximum of 519 nm.
On to `c1ccc(-c2nc3c(ccc4[nH]ccc43)o2)cc1`, for which the emission maximum turned out to be 437 nm.
With `N#Cc1ccc(N/N=C/c2ccc3ccccc3c2O)cc1`, the emission maximum amounted to 482 nm.
`Cc1cccc(Nc2ccccc2C(=O)O)c1C` had an emission maximum of 390 nm.
Same read-out and setting: to `N#CC(C#N)=C(/C=C/c1cn(-c2ccccc2)nc1-c1ccccc1)c1ccccc1` belongs 496 nm.
The same measure, in the same setting: the same measure for `C#CCOc1ccc(C2=[N+]3C(=Nc4c(-c5ccccc5)cc(-c5ccc(O)cc5)n4[B-]3(F)F)C(c3ccccc3)=C2)cc1`: 716 nm; for `COC(=O)c1nc2cnc(N)nc2n1Cc1ccccc1`: 412 nm; for `CCN(C)c1ccc(C2=C3C(C)=CC(/C=C/c4ccc(OCCCN=[N+]=[N-])cc4)=[N+]3[B-](F)(F)n3c(C)cc(C)c32)cc1`: 586 nm.

The series is the same for the next values; noted with them: in CS(C)=O.
In turn, `CN(C)c1ccc(/C=C/c2nc3ccc(N(C)C)cc3oc2=O)cc1` yielded an emission maximum of 666 nm.
On the same count and under the same terms, to `N#Cc1ccc(N/N=C/c2ccc3ccccc3c2O)cc1` belongs 456 nm; to `N#CC(C#N)=C(/C=C/c1cn(-c2ccccc2)nc1-c1ccccc1)c1ccccc1`, 509 nm; to `CCCCN1/C(=C/C=C/C2=[N+](C)c3ccccc3C2(C)C)Oc2ccccc21`, 537 nm.

Still in this series, the particulars now being: in Cc1ccccc1.
Take `c1ccc(-c2nc3c(ccc4[nH]ccc43)o2)cc1`: the emission maximum amounted to 390 nm.
On the same count and under the same terms, the same measure for `CC1(C)c2ccccc2N(c2ccc(-c3ccc(C#N)cn3)cc2)c2ccccc21`: 504 nm; for `CN(C)c1ccc(/C=C/c2nc3ccc(N(C)C)cc3oc2=O)cc1`: 567 nm.
`Cc1nnc(-c2cc(-n3c4ccccc4c4ccccc43)c(-n3c4ccccc4c4ccccc43)cc2-c2nnc(C)o2)o1` showed an emission maximum of 453 nm.
Molecule `N#Cc1cc(-c2ccc(N3c4ccccc4Oc4ccccc43)cc2)c(-c2ccc(N3c4ccccc4Oc4ccccc43)cc2)cc1C#N` came in with an emission maximum of 577 nm.
Same read-out and setting: the same measure for `c1ccc2c(c1)Sc1ccccc1N2c1ccc2c(ccc3nc4ccc5cc(N6c7ccccc7Sc7ccccc76)ccc5c4nc32)c1`: 657 nm; for `CC(C)(C)c1ccc2c(c1)c1cc(C(C)(C)C)cc3c1n2-c1cc(-c2ccc(F)cc2)cc2c1B3c1cc(C(C)(C)C)cc3c4cc(C(C)(C)C)ccc4n-2c13`: 496.94 nm.
The molecule `CCCCCCCCCCCCCCCCOc1cc(C#Cc2ccc3ccccc3c2)c(OCCCCCCCCCCCCCCCC)cc1C#Cc1ccc(C=C(C#N)C#N)cc1` showed an emission maximum of 530 nm.
Same read-out and setting: to `c1ccc(-c2nc3ccccc3nc2-c2ccc(-n3c4ccccc4c4ccccc43)cc2)cc1` belongs 434 nm; to `N#CC(C#N)=C(/C=C/c1cn(-c2ccccc2)nc1-c1ccccc1)c1ccccc1`, 460 nm; to `C#CCOc1ccc(C2=[N+]3C(=Nc4c(-c5ccccc5)cc(-c5ccc(O)cc5)n4[B-]3(F)F)C(c3ccccc3)=C2)cc1`, 711 nm.
On the same count and under the same terms, to `Cc1cc(C)c(B(c2ccc(N3c4ccccc4Oc4ccccc43)cc2)c2c(C)cc(C)cc2C)c(C)c1` belongs 540 nm.

The same series, now with this note: in ClC(Cl)(Cl)Cl.
`CCCCCCCCCCCCCCCCOc1cc(C#Cc2ccc3ccccc3c2)c(OCCCCCCCCCCCCCCCC)cc1C#Cc1ccc(C=C(C#N)C#N)cc1` showed an emission maximum of 500 nm.

The same series, now with this note: in ClC(Cl)Cl.
Regarding `F[B-]1(F)OC(c2ccc(N3CCCC3)cc2)=Cc2cccc[n+]21`, the emission maximum worked out at 496 nm.
With `F[B-]1(F)OC(c2ccc(Br)cc2)=Cc2c3ccccc3cc[n+]21`, the emission maximum is 466.4 nm.
Still for that read-out and setting: to `COc1ccc(-c2cc(-c3ccc(C)cc3)nc3c(C#N)c(N4CCCC4)nc(N)c23)cc1` belongs 504 nm; to `CN(C)c1ccc(/C=C/c2nc3ccc(N(C)C)cc3oc2=O)cc1`, 627 nm.
On the same count and under the same terms, to `Cc1cc(C)c(C2=C3C=CC(c4cccc5ccccc45)=[N+]3[B-](F)(F)n3c2ccc3-c2cccc3ccccc23)c(C)c1` belongs 601 nm; to `N#Cc1ccc(N/N=C/c2ccc3ccccc3c2O)cc1`, 425 nm.
Still for that read-out and setting: the same measure for `Cc1cccc(Nc2ccccc2C(=O)O)c1C`: 442 nm; for `CCOC(=O)c1ccccc1-c1c2ccc(=[N+](CC)CC)cc-2oc2c1c(=O)oc1cc(N(CC)CC)ccc12`: 640 nm; for `CCCCCCCCCCCCCCCCOc1cc(C#Cc2ccc3ccccc3c2)c(OCCCCCCCCCCCCCCCC)cc1C#Cc1ccc(C=C(C#N)C#N)cc1`: 596 nm.
With `N#CC(C#N)=C(/C=C/c1cn(-c2ccccc2)nc1-c1ccccc1)c1ccccc1`, the emission maximum was 488 nm.
`C#CCOc1ccc(C2=[N+]3C(=Nc4c(-c5ccccc5)cc(-c5ccc(O)cc5)n4[B-]3(F)F)C(c3ccccc3)=C2)cc1` registered an emission maximum of 708 nm.

The same series, now with this note: in ClCCl.
`COc1ccc(-c2cc(-c3ccc(C)cc3)nc3c(C#N)c(N4CCCC4)nc(N)c23)cc1`: the emission maximum is listed as 509 nm.
The molecule `c1ccc2c(c1)Cc1cc3c(cc1-2)Cc1ccccc1-3` gave an emission maximum of 356 nm.
The same measure, in the same setting: the same measure for `CN(C)c1ccc(/C=C/c2nc3ccc(N(C)C)cc3oc2=O)cc1`: 619 nm; for `Cc1nnc(-c2cc(-n3c4ccccc4c4ccccc43)c(-n3c4ccccc4c4ccccc43)cc2-c2nnc(C)o2)o1`: 485.51 nm.
On the same count and under the same terms, the same measure for `COc1ccc(C(=O)NC(C)(C)C)c2c1ccc1c3ccccc3c3ccccc3c12`: 407 nm.
On the same count and under the same terms, the same measure for `CC(C)(C)NC(=O)c1cccc2ccc3c4cc(F)ccc4c4ccc(F)cc4c3c12`: 385 nm; for `CCCCCCCCCCCCCCCCOc1cc(C#Cc2ccc3ccccc3c2)c(OCCCCCCCCCCCCCCCC)cc1C#Cc1ccc(C=C(C#N)C#N)cc1`: 618 nm; for `Cc1cc2ccccc2c2c1c1ccccc1n2C(=O)OC(C)(C)C`: 355 nm.
`N#CC(C#N)=C(/C=C/c1cn(-c2ccccc2)nc1-c1ccccc1)c1ccccc1` gave an emission maximum of 489 nm.
The same measure, in the same setting: the same measure for `O=C(c1ccc2c3c(cccc13)-c1cccc3c1C2CC=C3)c1c(CCc2ccccc2)c2ccc3cccc4c5cccc6ccc1c(c65)c2c34` (stereo unspecified): 527 nm; for `COc1ccc(-c2ccc3c(c2)[Si](C)(C)c2cc(-c4ccc(OC)cc4)ccc2C=C3)cc1`: 424 nm; for `COC(=O)c1nc2cnc(N)nc2n1Cc1ccccc1`: 379 nm.
Regarding `Cc1cc(C)c(B(c2ccc(N3c4ccccc4Oc4ccccc43)cc2)c2c(C)cc(C)cc2C)c(C)c1`, the emission maximum was 598.46 nm.
`CCN(CC)c1ccc2cc(C#N)c(=N)oc2c1` displayed an emission maximum of 460 nm.

Staying with this series, now noted: in N#Cc1ccc2c(c1)c1ccccc1n2-c1cccc(-n2c3ccccc3c3ccccc32)c1.
In turn, `CC1(C)c2ccccc2N(c2ccc(-c3ccc(C#N)cn3)cc2)c2ccccc21` displayed an emission maximum of 495 nm.

The series is the same for the next values; noted with them: in O.
Regarding `c1ccc(-c2nc3c(ccc4[nH]ccc43)o2)cc1`, the emission maximum is listed as 459 nm.
Same read-out and setting: the same measure for `CCOC(=O)c1ccccc1-c1c2ccc(=[N+](CC)CC)cc-2oc2c1c(=O)oc1cc(N(CC)CC)ccc12`: 652 nm; for `COC(=O)c1nc2cnc(N)nc2n1Cc1ccccc1`: 420 nm; for `CC1(C)C(/C=C/C=C/C=C/C=C2\N(CCCCS(=O)(=O)[O-])c3ccc4ccccc4c3C2(C)C)=[N+](CCCCS(=O)(=O)[O-])c2ccc3ccccc3c21`: 820 nm.

Staying with this series, now noted: in OCC(O)CO.
As to `CN(C)c1ccc(/C=C/c2nc3ccc(N(C)C)cc3oc2=O)cc1`, the emission maximum was determined as 659 nm.

Staying with this series, now noted: in OCCOCCO.
With `N#Cc1ccc(-c2ccc(C3=CCCCC3)s2)s1`, the emission maximum turned out to be 449 nm.

Still in this series, the particulars now being: in c1cc(-c2cccc(-n3c4ccccc4c4ccccc43)c2)cc(-n2c3ccccc3c3ccccc32)c1.
In turn, `N#Cc1cc(-c2ccc(N3c4ccccc4Oc4ccccc43)cc2)c(-c2ccc(N3c4ccccc4Oc4ccccc43)cc2)cc1C#N` yielded an emission maximum of 540 nm.

Still in this series, the particulars now being: in c1ccccc1.
In turn, `COc1ccc(-c2cc(-c3ccc(C)cc3)nc3c(C#N)c(N4CCCC4)nc(N)c23)cc1` showed an emission maximum of 513 nm.

The series is the same for the next values; noted with them: in c1ccncc1.
Take `N#Cc1ccc(-c2ccc(C3=CCCCC3)s2)s1`: the emission maximum was 448 nm.

The record behind these values is the Deep4Chem optical property database.
